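GI50 is the concentration that inhibits growth by half. At the TGI there is no net growth.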
Columns and labels:
Test in all cases: NCI anticancer screen, dose series, 384-well format
MALME-3M melanoma = tested on: MALME-3M melanoma
786-0 renal = tested on: 786-0 renal
NCI-H522 lung = tested on: NCI-H522 lung
NCI-H23 lung = tested on: NCI-H23 lung
A549 NSCLC = tested on: A549 NSCLC
TK-10 renal = tested on: TK-10 renal
UO-31 renal = tested on: UO-31 renal
NCI-H460 NSCLC = tested on: NCI-H460 NSCLC
HOP-62 NSCLC = tested on: HOP-62 NSCLC
UACC-62 melanoma = tested on: UACC-62 melanoma
HCC-2998 colon = tested on: HCC-2998 colon
K-562 leukemia = tested on: K-562 leukemia
SNB-75 CNS = tested on: SNB-75 CNS
A498 renal = tested on: A498 renal
SF-539 CNS = tested on: SF-539 CNS
UACC-257 melanoma = tested on: UACC-257 melanoma
HT29 colon = tested on: HT29 colon
SF-295 CNS = tested on: SF-295 CNS
KM12 colon = tested on: KM12 colon
HOP-92 NSCLC = tested on: HOP-92 NSCLC
HL-60(TB) leukemia = tested on: HL-60(TB) leukemia
LOX IMVI melanoma = tested on: LOX IMVI melanoma
COLO 205 colon = tested on: COLO 205 colon
PC-3 prostate = tested on: PC-3 prostate
EKVX NSCLC = tested on: EKVX NSCLC
DU-145 prostate = tested on: DU-145 prostate
SF-268 CNS = tested on: SF-268 CNS
M14 melanoma = tested on: M14 melanoma
SK-MEL-2 melanoma = tested on: SK-MEL-2 melanoma
MOLT-4 leukemia = tested on: MOLT-4 leukemia
CCRF-CEM leukemia = tested on: CCRF-CEM leukemia
SW-620 colon = tested on: SW-620 colon
OVCAR-5 ovarian = tested on: OVCAR-5 ovarian
SK-MEL-5 melanoma = tested on: SK-MEL-5 melanoma
RXF 393 renal = tested on: RXF 393 renal
OVCAR-4 ovarian = tested on: OVCAR-4 ovarian
ACHN renal = tested on: ACHN renal
SN12C renal = tested on: SN12C renal
CAKI-1 renal = tested on: CAKI-1 renal
MCF7 breast = tested on: MCF7 breast
HCT-116 colon = tested on: HCT-116 colon
NCI-H322M lung = tested on: NCI-H322M lung
IGROV1 ovarian = tested on: IGROV1 ovarian
SK-OV-3 ovarian = tested on: SK-OV-3 ovarian
U251 glioblastoma = tested on: U251 glioblastoma
MDA-MB-468 breast = tested on: MDA-MB-468 breast
HS 578T breast = tested on: HS 578T breast
RPMI-8226 leukemia = tested on: RPMI-8226 leukemia
HCT-15 colon = tested on: HCT-15 colon
SK-MEL-28 melanoma = tested on: SK-MEL-28 melanoma
BT-549 breast = tested on: BT-549 breast
NCI-H226 lung = tested on: NCI-H226 lung
OVCAR-3 ovarian = tested on: OVCAR-3 ovarian
MDA-MB-231 breast = tested on: MDA-MB-231 breast
SNB-19 CNS = tested on: SNB-19 CNS
OVCAR-8 ovarian = tested on: OVCAR-8 ovarian
T-47D breast = tested on: T-47D breast
NCI/ADR-RES ovarian = tested on: NCI/ADR-RES ovarian
MDA-MB-435 melanoma = tested on: MDA-MB-435 melanoma

CC(C)NC[C@@H](C(=O)N1CCN(c2ncnc3c2[C@H](C)C[C@H]3O)CC1)c1ccc(Cl)cc1
GI50 (MALME-3M melanoma): 7.94 µM | TGI (MALME-3M melanoma): 21.6 µM | GI50 ([…]-0 renal): 1.49 µM | TGI (786-0 renal): 21 µM | GI50 (NCI-H522 lung): 17 µM | TGI (NCI-H522 lung): 49.3 µM | GI50 (NCI-H23 lung): 16.2 µM | TGI (NCI-H23 lung): 57.1 µM | GI50 (A549 NSCLC): 18.2 µM | TGI (A549 NSCLC): > 100 µM | GI50 (TK-10 renal): 5.49 µM | TGI (TK-10 renal): 36.9 µM | GI50 (UO-31 renal): 35 µM | TGI (UO-31 renal): > 100 µM | GI50 (NCI-H460 NSCLC): 1.31 µM | TGI (NCI-H460 NSCLC): > 100 µM | GI50 (HOP-62 NSCLC): 34.1 µM | TGI (HOP-62 NSCLC): > 100 µM | GI50 (UACC-62 melanoma): 10.9 µM | TGI (UACC-62 melanoma): 30.4 µM | GI50 (HCC-2998 colon): 3.41 µM | TGI (HCC-2998 colon): 24.1 µM | GI50 (K-562 leukemia): 25.4 µM | TGI (K-562 leukemia): > 100 µM | GI50 (SNB-75 CNS): 0.676 µM | TGI (SNB-75 CNS): 15.3 µM | GI50 (A498 renal): 0.589 µM | TGI (A498 renal): 11.3 µM | GI50 (SF-539 CNS): 0.587 µM | TGI (SF-539 CNS): 22.5 µM | GI50 (UACC-257 melanoma): 14 µM | TGI (UACC-257 melanoma): 27.1 µM | GI50 (HT29 colon): 15.1 µM | TGI (HT29 colon): 52.5 µM | GI50 (SF-295 CNS): 2.19 µM | TGI (SF-295 CNS): 32.7 µM | GI50 (KM12 colon): 1.45 µM | TGI (KM12 colon): 18.8 µM | GI50 (HOP-92 NSCLC): 11.7 µM | TGI (HOP-92 NSCLC): 46.1 µM | GI50 (HL-60(TB) leukemia): 17.3 µM | TGI (HL-60(TB) leukemia): 31.2 µM | GI50 (LOX IMVI melanoma): 34.5 µM | TGI (LOX IMVI melanoma): > 100 µM | GI50 (COLO 205 colon): 4.88 µM | TGI (COLO 205 colon): 24.5 µM | GI50 (PC-3 prostate): 1.07 µM | TGI (PC-3 prostate): 35.4 µM | GI50 (EKVX NSCLC): 10.6 µM | TGI (EKVX NSCLC): 52.4 µM | GI50 (DU-145 prostate): 25.8 µM | TGI (DU-145 prostate): > 100 µM | GI50 (SF-268 CNS): 29.6 µM | TGI (SF-268 CNS): > 100 µM | GI50 (M14 melanoma): 14.4 µM | TGI (M14 melanoma): 34 µM | GI50 (SK-MEL-2 melanoma): 11.2 µM | TGI (SK-MEL-2 melanoma): 24.5 µM | GI50 (MOLT-4 leukemia): 0.259 µM | TGI (MOLT-4 leukemia): 1.77 µM | GI50 (CCRF-CEM leukemia): 0.854 µM | TGI (CCRF-CEM leukemia): 12 µM | GI50 (SW-620 colon): 49.9 µM | TGI (SW-620 colon): > 100 µM | GI50 (OVCAR-5 ovarian): 18.4 µM | TGI (OVCAR-5 ovarian): > 100 µM | GI50 (SK-MEL-5 melanoma): 12 µM | TGI (SK-MEL-5 melanoma): 25.2 µM | GI50 (RXF 393 renal): 0.3 µM | TGI (RXF 393 renal): 4.41 µM | GI50 (OVCAR-4 ovarian): 76.8 µM | TGI (OVCAR-4 ovarian): > 100 µM | GI50 (ACHN renal): 25.1 µM | TGI (ACHN renal): > 100 µM | GI50 (SN12C renal): 23.8 µM | TGI (SN12C renal): > 100 µM | GI50 (CAKI-1 renal): 11.7 µM | TGI (CAKI-1 renal): 75.5 µM | GI50 (MCF7 breast): 0.919 µM | TGI (MCF7 breast): 15.5 µM | GI50 (HCT-116 colon): 18.2 µM | TGI (HCT-116 colon): 96.8 µM | GI50 (NCI-H322M lung): 18.4 µM | TGI (NCI-H322M lung): > 100 µM | GI50 (IGROV1 ovarian): 0.235 µM | TGI (IGROV1 ovarian): 2.69 µM | GI50 (SK-OV-3 ovarian): 0.912 µM | TGI (SK-OV-3 ovarian): 23.6 µM | GI50 (U251 glioblastoma): 10.2 µM | TGI (U251 glioblastoma): > 100 µM | GI50 (MDA-MB-468 breast): 0.494 µM | TGI (MDA-MB-468 breast): 4.16 µM | GI50 (HS 578T breast): 0.771 µM | TGI (HS 578T breast): 14.6 µM | GI50 (RPMI-8226 leukemia): 10.5 µM | TGI (RPMI-8226 leukemia): 23.9 µM | GI50 (HCT-15 colon): 26.2 µM | TGI (HCT-15 colon): > 100 µM | GI50 (SK-MEL-28 melanoma): 11.4 µM | TGI (SK-MEL-28 melanoma): 41.7 µM | GI50 (BT-549 breast): 0.636 µM | TGI (BT-549 breast): 11.8 µM | GI50 (NCI-H226 lung): 21.2 µM | TGI (NCI-H226 lung): > 100 µM | GI50 (OVCAR-3 ovarian): 10.5 µM | TGI (OVCAR-3 ovarian): 64.5 µM | GI50 (MDA-MB-231 breast): 44.9 µM | TGI (MDA-MB-231 breast): > 100 µM | GI50 (SNB-19 CNS): 7.47 µM | TGI (SNB-19 CNS): > 100 µM | GI50 (OVCAR-8 ovarian): 45.9 µM | TGI (OVCAR-8 ovarian): > 100 µM | GI50 (T-47D breast): 0.119 µM | TGI (T-47D breast): 0.857 µM | GI50 (NCI/ADR-RES ovarian): > 100 µM | TGI (NCI/ADR-RES ovarian): > 100 µM | GI50 (MDA-MB-435 melanoma): 23.9 µM | TGI (MDA-MB-435 melanoma): > 100 µM
